Experimental findings from US11760754B2, “Heterocyclic mitochondrial activity inhibitors and uses thereof” (UNIVERSITÉ DE MONTRÉAL, priority 2017, dated 2023) are described below.

Like-named read-outs stand apart in the source and are kept apart here.

Test [1] deals with MLL-AF9 cells. Nature of the test: MLL-AF9 leukemia cell growth inhibition, dose-response viability assay (CellTiterGlo). The class given is cell-based, murine. As to conditions: read-out: MLL-AF9 EC50. In short, it runs like this:
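Murine MLL-AF9 leukemia cells (female, MSCV MLL-AF9 IRES Puro transduced) were treated with serial compound dilutions from 10 μM to 0.5 nM in duplicates or quadruplicates. Viability read by CellTiterGlo dose-response.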
A general note: In ATP-based viability assays light output follows the ATP content of the culture.

Test [2] has as its system OCI-AML3 cells. The experiment in a line: OCI-AML3 cell growth inhibition, dose-response viability assay (CellTiterGlo). The class given is cell-based. As to conditions: for EC50: read-out: AML-3 EC50. In short, it runs like this:
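OCI-AML3 cells seeded, then exposed to compound in serial dilutions from 10 μM to 0.5 nM, in duplicate or quadruplicate. Viability read by CellTiter-Glo.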

In test [3] the test system is AML patient cells. The experiment in a line: Primary AML patient cell dose-response viability assay (chemical screen). As to conditions: 41 AML patient specimens, primary screen.

In general, EC50 refers to the concentration at which the effect is half-maximal.

`O=S(=O)(NCCc1nccn1CCCCc1ccc(OCc2coc(/C=C/c3ccc(C(F)(F)F)cc3)n2)cc1)C(F)(F)F` [Compound 55, (E)-1,1,1-trifluoro-N-(2-(1-(4-(4-((2-(4-(trifluoromethyl)styryl)oxazol-4-yl)methoxy)phenyl)butyl)-1H-imidazol-2-yl)ethyl)methanesulfonamide]: the EC50 in test [1] (Mus musculus, MLL-AF9, 120 h) was in the range of 100 to 500 nM; in test [2] (Homo sapiens, OCI-AML-3, 144 h), 500 to 1000 nM.

As for `COc1ccc(/C=C/c2nc(COc3ccc(CCCCn4ccnn4)cc3)co2)cc1` [Compound 32, (E)-4-((4-(4-(1H-1,2,3-triazol-1-yl)butyl)phenoxy)methyl)-2-(4-methoxystyryl)oxazole], the EC50 in test [1] (Mus musculus, MLL-AF9, 120 h) was 100 to 500 nM; in test [2] (Homo sapiens, OCI-AML-3, 144 h), 100 to 500 nM.

For `OCCc1cn(CCCCc2ccc(OCc3coc(/C=C/c4ccc(C(F)(F)F)cc4F)n3)cc2)nn1` [Compound 95, (E)-2-(1-(4-(4-((2-(2-fluoro-4-(trifluoromethyl)styryl)oxazol-4-yl)methoxy)phenyl)butyl)-1H-1,2,3-triazol-4-yl)ethanol], the EC50 was in the range of 100 to 500 nM in test [1] (Mus musculus, MLL-AF9, 120 h) and 1000 to 10000 nM in test [2] (Homo sapiens, OCI-AML-3, 144 h).

Take `O=C(CCCn1ccnn1)c1ccc(OCc2coc(/C=C/c3ccc(Br)cc3F)n2)cc1` [Compound 20, (E)-1-(4-((2-(4-bromo-2-fluorostyryl)oxazol-4-yl)methoxy)phenyl)-4-(1H-1,2,3-triazol-1-yl)butan-1-one]: the concentration for a half-maximal effect (EC50) in test [1] (Mus musculus, MLL-AF9, 120 h) fell in the range of 100 to 500 nM; in test [2] (Homo sapiens, OCI-AML-3, 144 h) it was 500 to 1000 nM.

Regarding `Fc1cc(OC(F)(F)F)ccc1/C=C/c1nc(COc2ccc(CCCCn3ccnn3)cc2)co1` [Compound 124, (E)-4-((4-(4-(1H-1,2,3-triazol-1-yl)butyl)phenoxy)methyl)-2-(2-fluoro-4-(trifluoromethoxy)styryl)oxazole], the EC50 in test [1] (Mus musculus, MLL-AF9, 120 h) is 50 to 100 nM; in test [2] (Homo sapiens, OCI-AML-3, 144 h), less than 50 nM.

With `CS(=O)(=O)CCNCc1ccc(-c2ccc3ncnc(Nc4ccc(OCc5cccc(F)c5)c(Cl)c4)c3c2)o1` [Lapatinib, Lapatinib ditosylate, reference compound], the “sensitivity of AML patient specimens” value in test [3] is recorded as “resistant”. In addition, the “OCI-AML3 cells sensitive to the compound (dose response)” value in test [2] (OCI-AML3 cells) is reported as “not”.

Consider `Fc1cc(C(F)(F)F)ccc1/C=C/c1nc(COc2ccc(CCCCn3cnnn3)cc2)co1` [Compound 90, (E)-4-((4-(4-(1H-tetrazol-1-yl)butyl)phenoxy)methyl)-2-(2-fluoro-4-(trifluoromethyl)styryl) oxazole], for which the EC50 was 100 to 500 nM in test [1] (Mus musculus, MLL-AF9, 120 h) and 1000 to 10000 nM in test [2] (Homo sapiens, OCI-AML-3, 144 h).

As for `O=[N+]([O-])c1ccc(/C=C/c2nc(COc3ccc(CCCCn4ccnn4)cc3)co2)c(Oc2ccc(CCCCn3ccnn3)cc2)c1` [Compound 101, (E)-2-(2-(4-(4-(1H-1,2,3-triazol-1-yl)butyl)phenoxy)-4-nitrostyryl)-4-((4-(4-(1H-1,2,3-triazol-1-yl)butyl)phenoxy)methyl)oxazole], the 50% effective concentration (EC50) in test [1] (Mus musculus, MLL-AF9, 120 h) was 1000 to 10000 nM; in test [2] (Homo sapiens, OCI-AML-3, 144 h), 1000 to 10000 nM.

On to `Fc1cc(C(F)(F)F)ccc1/C=C/c1nc(COc2ccc(COCCn3ccnn3)cc2)co1` [Compound 115, (E)-4-((4-((2-(1H-1,2,3-triazol-1-yl)ethoxy)methyl)phenoxy)methyl)-2-(2-fluoro-4-(trifluoromethyl)styryl)oxazole], for which the EC50 in test [1] (Mus musculus, MLL-AF9, 120 h) lay in the range of 100 to 500 nM; in test [2] (Homo sapiens, OCI-AML-3, 144 h), 500 to 1000 nM.

Regarding `N#Cc1ccc(/C=C/c2nc(COc3ccc(SCCCn4ccnn4)cc3)co2)c(F)c1` [Compound 141, (E)-4-(2-(4-((4-((3-(1H-1,2,3-triazol-1-yl)propyl)thio)phenoxy)methyl)oxazol-2-yl)vinyl)-3-fluorobenzonitrile], the EC50 is 50 to 100 nM in test [1] (Mus musculus, MLL-AF9, 120 h) and less than 50 nM in test [2] (Homo sapiens, OCI-AML-3, 144 h).

For `Fc1cc(Br)ccc1/C=C/c1nc(COc2ccc(CCCCn3ccnn3)cc2)co1` [Compound 3A, (E)-((4-(4-(1H-1,2,3-triazol-1-yl)butyl)phenoxy)methyl)-2-(4-bromo-2-fluorostyryl)oxazole], the EC50 is less than 50 nM in test [1] (MLL-AF9 cells, 5 days of culture, CellTiterGlo) and less than 50 nM in test [2] (OCI-AML3 cells, 6 days of culture, CellTiterGlo).

On to `FC(F)(F)c1ccc(/C=C/c2nc(COc3ccc(CCCCn4cncn4)cc3)co2)c(Oc2ccc(CCCCn3cncn3)cc2)c1` [Compound 89, (E)-2-(2-(4-(4-(1H-1,2,4-triazol-1-yl)butyl)phenoxy)-4-(trifluoromethyl)styryl)-4-((4-(4-(1H-1,2,4-triazol-1-yl)butyl)phenoxy)methyl)oxazole], for which the EC50 was 1000 to 10000 nM in test [1] (Mus musculus, MLL-AF9, 120 h) and 1000 to 10000 nM in test [2] (Homo sapiens, OCI-AML-3, 144 h).

Regarding `O=C(CCO)NCCCCc1ccc(OCc2coc(/C=C/c3ccc(C(F)(F)F)cc3)n2)cc1` [Compound 86, (E)-3-hydroxy-N-(4-(4-((2-(4-(trifluoromethyl)styryl)oxazol-4-yl)methoxy)phenyl)butyl) propanamide], the EC50 in test [1] (Mus musculus, MLL-AF9, 120 h) lay in the range of 100 to 500 nM; in test [2] (Homo sapiens, OCI-AML-3, 144 h), 1000 to 10000 nM.

As to `N#Cc1ccc(/C=C/c2nc(COc3ccc(CCCCn4ccnn4)cc3)co2)c(F)c1` [Compound 122, (E)-4-(2-(4-((4-(4-(1H-1,2,3-triazol-1-yl)butyl)phenoxy)methyl)oxazol-2-yl)vinyl)-3-fluorobenzonitrile], the EC50 in test [1] (Mus musculus, MLL-AF9, 120 h) was less than 50 nM; in test [2] (Homo sapiens, OCI-AML-3, 144 h) it was less than 50 nM.

Turning to `FC(F)(F)c1ccc(/C=C/c2nc(CNc3ccc(CCCCn4ccnn4)cc3)co2)cc1` [Compound 26, (E)-4-(4-(1H-1,2,3-triazol-1-yl)butyl)-N-((2-(4-(trifluoromethyl)styryl)oxazol-4-yl)methyl)aniline], the EC50 in test [1] (Mus musculus, MLL-AF9, 120 h) lay in the range of 100 to 500 nM; in test [2] (Homo sapiens, OCI-AML-3, 144 h), 1000 to 10000 nM.

Take `Fc1cc(C(F)(F)F)ccc1CCc1nc(COc2ccc(CCCCn3ccnn3)cc2)co1` [Compound 11, 4-((4-(4-(1H-1,2,3-triazol-1-yl)butyl)phenoxy)methyl)-2-(2-fluoro-4-(trifluoromethyl)phenethyl)oxazole]: the EC50 is 1000 to 10000 nM in test [1] (Mus musculus, MLL-AF9, 120 h) and 1000 to 10000 nM in test [2] (Homo sapiens, OCI-AML-3, 144 h).
